Source: patent US8835472B2, “Compounds, pharmaceutical compositions and uses thereof” (Boehringer Ingelheim International GmbH, priority 2010, dated 2014)

Target: human ACC2 (Homo sapiens (Human), UniProt O00763)
Assay: ACC2 assay, spectrophotometric 384 well assay (NADH-linked, coupled lactate dehydrogenase/pyruvate kinase reaction)
Format: biochemical
Details: hACC2 construct lacking the 128 N-terminal amino acids; 25° C., 340 nm over 15 minutes
Summary of the method: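 N-terminally truncated human ACC2 (lacking 128 residues) expressed in insect cells; coupled PK/LDH read-out of ADP as NADH loss at 340 nm, 15 min, 25 °C. Tris pH 7.5 with citrate and KHCO3; 200 μM acetyl-CoA, 500 μM ATP, 1% DMSO.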

Chain of human ACC2 (O00763 129-2458): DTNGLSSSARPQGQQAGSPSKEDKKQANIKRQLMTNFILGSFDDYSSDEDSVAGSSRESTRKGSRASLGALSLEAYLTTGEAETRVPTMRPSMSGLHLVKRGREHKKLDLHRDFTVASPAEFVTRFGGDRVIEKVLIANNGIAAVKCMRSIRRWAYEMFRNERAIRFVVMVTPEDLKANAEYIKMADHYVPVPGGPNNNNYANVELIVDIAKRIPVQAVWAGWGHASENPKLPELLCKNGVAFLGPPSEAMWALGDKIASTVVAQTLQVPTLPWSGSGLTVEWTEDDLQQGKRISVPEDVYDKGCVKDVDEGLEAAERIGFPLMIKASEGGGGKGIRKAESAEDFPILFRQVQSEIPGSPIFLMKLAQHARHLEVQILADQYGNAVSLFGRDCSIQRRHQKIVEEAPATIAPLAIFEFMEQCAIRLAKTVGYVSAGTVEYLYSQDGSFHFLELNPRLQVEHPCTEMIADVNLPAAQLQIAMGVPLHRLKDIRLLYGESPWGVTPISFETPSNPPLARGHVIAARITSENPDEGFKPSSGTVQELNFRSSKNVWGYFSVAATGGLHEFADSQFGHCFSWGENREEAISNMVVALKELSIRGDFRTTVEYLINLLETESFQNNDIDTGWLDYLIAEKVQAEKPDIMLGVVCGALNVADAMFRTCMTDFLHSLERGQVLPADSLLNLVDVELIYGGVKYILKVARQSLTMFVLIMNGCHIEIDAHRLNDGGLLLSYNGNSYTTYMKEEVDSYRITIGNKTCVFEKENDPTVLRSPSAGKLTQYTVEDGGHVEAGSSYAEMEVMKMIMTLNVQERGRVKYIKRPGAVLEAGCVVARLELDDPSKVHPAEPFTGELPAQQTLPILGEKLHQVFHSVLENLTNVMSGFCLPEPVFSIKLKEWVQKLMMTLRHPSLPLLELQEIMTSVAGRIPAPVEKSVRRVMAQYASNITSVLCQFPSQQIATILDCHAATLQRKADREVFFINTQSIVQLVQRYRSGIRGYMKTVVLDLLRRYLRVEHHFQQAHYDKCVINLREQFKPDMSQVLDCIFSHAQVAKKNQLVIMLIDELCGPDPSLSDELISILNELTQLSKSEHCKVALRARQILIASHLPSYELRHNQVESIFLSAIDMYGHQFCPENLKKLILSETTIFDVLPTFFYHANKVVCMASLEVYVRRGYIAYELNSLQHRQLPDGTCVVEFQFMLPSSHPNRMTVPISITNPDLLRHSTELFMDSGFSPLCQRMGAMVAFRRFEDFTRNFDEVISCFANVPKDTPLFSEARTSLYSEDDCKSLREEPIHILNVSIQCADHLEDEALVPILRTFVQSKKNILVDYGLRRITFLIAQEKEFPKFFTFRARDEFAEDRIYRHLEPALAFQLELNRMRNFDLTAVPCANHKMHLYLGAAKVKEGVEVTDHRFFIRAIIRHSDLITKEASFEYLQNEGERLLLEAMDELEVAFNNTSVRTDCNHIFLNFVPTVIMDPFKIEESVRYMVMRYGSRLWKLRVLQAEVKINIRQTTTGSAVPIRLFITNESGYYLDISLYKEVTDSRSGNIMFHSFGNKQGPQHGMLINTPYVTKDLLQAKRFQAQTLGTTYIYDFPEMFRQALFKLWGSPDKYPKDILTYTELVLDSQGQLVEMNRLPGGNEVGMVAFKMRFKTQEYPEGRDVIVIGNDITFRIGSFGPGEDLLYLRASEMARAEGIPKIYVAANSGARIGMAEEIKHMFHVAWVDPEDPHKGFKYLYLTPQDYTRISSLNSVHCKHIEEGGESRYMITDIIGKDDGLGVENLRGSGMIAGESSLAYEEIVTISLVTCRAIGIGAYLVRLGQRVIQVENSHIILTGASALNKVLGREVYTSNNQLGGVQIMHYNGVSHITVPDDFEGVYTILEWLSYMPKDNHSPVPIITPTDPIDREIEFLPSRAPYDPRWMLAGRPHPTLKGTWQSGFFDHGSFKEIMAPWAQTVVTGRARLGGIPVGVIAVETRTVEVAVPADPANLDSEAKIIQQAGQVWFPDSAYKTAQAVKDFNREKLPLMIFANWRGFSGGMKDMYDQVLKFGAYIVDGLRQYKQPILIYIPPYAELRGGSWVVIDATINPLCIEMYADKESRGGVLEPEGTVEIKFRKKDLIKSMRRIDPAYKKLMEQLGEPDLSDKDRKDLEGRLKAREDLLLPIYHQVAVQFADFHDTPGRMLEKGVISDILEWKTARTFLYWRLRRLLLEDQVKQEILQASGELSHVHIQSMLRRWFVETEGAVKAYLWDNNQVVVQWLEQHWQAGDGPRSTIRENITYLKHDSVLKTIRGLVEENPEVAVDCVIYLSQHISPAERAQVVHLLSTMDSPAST

IC50 [nM] | Compound
1300 | COc1ccc(C#Cc2ccc(CCC(C)NC(C)=O)cc2)cn1 (stereo not drawn) [Example 14.8]
180 | CC(=O)NC(C)CCc1ccc(C#Cc2ccc(OC(C)C)cc2)cc1 (stereo not drawn) [Example 14.9]
100 | CCOc1ccc(C#Cc2ccc(CCC(C)NC(C)=O)cc2)cc1 (stereo not drawn) [Example 14.10]
130 | CCCOc1ccc(C#Cc2ccc(CCC(C)NC(C)=O)cc2)cc1 (stereo not drawn) [Example 14.11]
170 | CC(=O)NC(C)CCc1ccc(C#Cc2ccc(OCC3CC3)cc2)cc1 (stereo not drawn) [Example 14.12]
220 | CC(=O)NC(C)CCc1ccc(C#Cc2ccc(OCC(C)C)cc2)cc1 (stereo not drawn) [Example 14.13]
160 | CC(=O)NC(C)CCc1ccc(C#Cc2ccc(OC3CCCC3)cc2)cc1 (stereo not drawn) [Example 14.14]
140 | CCC(C)Oc1ccc(C#Cc2ccc(CCC(C)NC(C)=O)cc2)cc1 (stereo not drawn) [Example 14.15]
120 | CCCOc1cc(C#Cc2ccc(CCC(C)NC(C)=O)cc2)ccn1 (stereo not drawn) [Example 14.16]
510 | CC(C)COc1ccc(C#Cc2ccc(CC(C)NC(=O)C3CC3)cc2)cc1 (stereo not drawn) [Example 14.17]
140 | CC(Cc1ccc(C#Cc2ccc(OCC3CC3)cc2)cc1)NC(=O)C1CC1 (stereo not drawn) [Example 14.18]
190 | CCOc1ccc(C#Cc2ccc([C@H](C)NC(C)=O)cc2)cc1 [Example 14.19]
510 | CC(=O)N[C@@H](C)c1ccc(C#Cc2ccc(OC(C)C)cc2)cc1 [Example 14.20]
3100 | CC(=O)NC(C)Cc1ccc(C#Cc2ccc(OCCC(C)C)nn2)cc1 (stereo not drawn) [Example 14.21]
13400 | CCCOc1cc(C#Cc2ccc([C@@H](C)NC(C)=O)cc2)ccn1 [Example 14.22]
140 | CCCOc1ccc(C#Cc2ccc([C@H](C)NC(C)=O)cc2)cc1 [Example 14.23]
200 | CCCOc1cc(C#Cc2ccc([C@H](C)NC(C)=O)cc2)ccn1 [Example 14.24]
1800 | CCOc1ccc(C#Cc2ccc([C@H](C)NC(C)=O)cc2)cn1 [Example 14.25]
140 | CC(=O)N[C@@H](C)c1ccc(C#Cc2ccc(OCC(C)C)cc2)cc1 [Example 14.26]
3700 | CC(Cc1ccc(C#Cc2ccc(Oc3cncnc3)nc2)cc1)NC(=O)C1CC1 (stereo not drawn) [Example 14.27]
3400 | CC(C)Oc1ccc(C#Cc2ccc([C@H](C)NC(=O)C3CC3)cc2)cc1 [Example 14.28]

IC50 [nM] | Compound
680 | CC(Cc1ccc(C#Cc2ccc(OC3CCC3)cc2)cc1)NC(=O)C1CC1 (stereo not drawn) [Example 14.29]
150 | CC(Cc1ccc(C#Cc2ccc(OC3CC3)cc2)cc1)NC(=O)C1CC1 (stereo not drawn) [Example 14.30]
90 | CCCCOc1ccc(C#Cc2ccc(CC(C)NC(=O)C3CC3)cc2)cc1 (stereo not drawn) [Example 14.31]
710 | CC(Cc1ccc(C#Cc2cccc(OC(C)C)c2)cc1)NC(=O)C1CC1 (stereo not drawn) [Example 14.32]
1600 | CCC(CC)Oc1ccc(C#Cc2ccc(CC(C)NC(=O)C3CC3)cc2)cc1 (stereo not drawn) [Example 14.33]
600 | CC(=O)NCCc1ccc(C#Cc2ccc(OCC(C)C)cc2)cc1 [Example 14.34]
730 | CC(=O)NCCc1ccc(C#Cc2ccc(OC(C)C)cc2)cc1 [Example 14.35]
2300 | CCOc1ccc(C#Cc2ccc(CCNC(C)=O)cc2)cn1 [Example 14.36]
170 | CCCOc1ccc(C#Cc2ccc(CCNC(C)=O)cc2)cc1 [Example 14.37]
1400 | CC(=O)NCCc1ccc(C#Cc2ccc(Oc3ccccc3)nc2)cc1 [Example 14.38]
1100 | CCCOc1cc(C#Cc2ccc(CCNC(C)=O)cc2)ccn1 [Example 14.39]
80 | CCCOc1ccc(C#Cc2ccc(CC(C)NC(=O)C3CC3)cc2)cc1 (stereo not drawn) [Example 14.40]
440 | CC(Cc1ccc(C#Cc2ccc(OC(C)C)cc2)cc1)NC(=O)C1CC1 (stereo not drawn) [Example 14.41]
360 | CC(Cc1ccc(C#Cc2ccc(Oc3ccccc3)nc2)cc1)NC(=O)C1CC1 (stereo not drawn) [Example 14.43]
360 | CCCOc1cc(C#Cc2ccc(CC(C)NC(=O)C3CC3)cc2)ccn1 (stereo not drawn) [Example 14.44]
1000 | CC(Cc1ccc(C#Cc2ccc(C(C)(C)C)cc2)cc1)NC(=O)C1CC1 (stereo not drawn) [Example 14.45]
210 | CCC(C)Oc1ccc(C#Cc2ccc(CC(C)NC(=O)C3CC3)cc2)cc1 (stereo not drawn) [Example 14.46]
80 | CC(Cc1ccc(C#Cc2ccc(OC3CCCC3)cc2)cc1)NC(=O)C1CC1 (stereo not drawn) [Example 14.47]
580 | CC(C)COc1ccc(C#Cc2ccc([C@H](C)NC(=O)C3CC3)cc2)cc1 [Example 14.48]
320 | CCOc1ccc(C#Cc2ccc([C@H](C)NC(=O)C3CC3)cc2)cc1 [Example 14.49]
1500 | CC(=O)NC(C)Cc1ccc(C#Cc2ccc(OC(F)(F)F)cc2)cc1 (stereo not drawn) [Example 14.50]

IC50 [nM] | Compound
400 | CCOc1ccc(C#Cc2ccc(C(C)NC(C)=O)cc2)cc1 (stereo not drawn) [Example 14.51]
3800 | CCOc1cccc(C#Cc2ccc(CC(C)NC(=O)C3CC3)cc2)c1 (stereo not drawn) [Example 14.52]
280 | CCOc1ccc(C#Cc2ccc(CCC(C)NC(C)=O)cc2)cn1 (stereo not drawn) [Example 14.53]
240 | CC(=O)NC(C)CCc1ccc(C#Cc2cnc(OC3CCC3)nc2)cc1 (stereo not drawn) [Example 14.54]
120 | CC(=O)NC(C)Cc1ccc(C#Cc2ccc3c(c2)OCC(C)(C)CO3)cc1 (stereo not drawn) [Example 14.55]
1100 | CCOc1ccc(C#Cc2ccc(CCNC(=O)CC)cc2)cc1 [Example 16.1, N-(4-((4-Ethoxyphenyl)ethynyl)phenethyl)propionamide]
3200 | CCOc1ccc(C#Cc2ccc(CN3CCCC3=O)cc2)cc1 [Example 16.2]
430 | CCOc1ccc(C#Cc2ccc(CCNC(C)=O)cc2)cc1 [Example 16.3]
13700 | CCOc1ccc(C#Cc2ccc(CC(C)N(C)C(C)=O)cc2)cc1 (stereo not drawn) [Example 18.1, N-{2-[4-(4-Ethoxy-phenylethynyl)-phenyl]-1-methyl-ethyl}-N-methyl-acetamide]
4400 | CCOc1ccc(C#Cc2ccc(CC(C)N(C)C(=O)CC)cc2)cc1 (stereo not drawn) [Example 18.2]
980 | COCCOc1cc(C#Cc2ccc(CC(C)NC(C)=O)cc2)ccn1 (stereo not drawn) [Example 20.1, N-(2-{4-[2-(2-Methoxy-ethoxy)-pyridin-4-ylethynyl]-phenyl}-1-methyl-ethyl)-acetamide; compound with trifluoro-acetic acid]
600 | CCOc1cc(C#Cc2ccc(CC(C)NC(=O)N(C)C)cc2)ccn1 (stereo not drawn) [Example 20.2]
130 | CC(=O)N[C@@H](C)Cc1ccc(C#Cc2ccc(OC(C)C)cc2)cc1 [Example 23.2]
400 | CC(=O)N[C@@H](C)Cc1ccc(C#Cc2ccc(OCC(C)C)cc2)cc1 [Example 23.3]
90 | CC(=O)N[C@@H](C)Cc1ccc(C#Cc2ccc(C(C)(C)C)cc2)cc1 [Example 23.4]
80 | CCOc1ccc(C#Cc2ccc(C[C@H](C)NC(C)=O)cc2)cn1 [Example 23.5]
70 | CCCOc1ccc(C#Cc2ccc(C[C@H](C)NC(C)=O)cc2)cc1 [Example 23.6]
1600 | CC(=O)NC(C)Cc1ccc(C#Cc2ccc(-c3cnco3)cc2)cc1 (stereo not drawn) [Example 23.7]
180 | CCCOc1ccc(C#Cc2ccc(CC(C)NC(C)=O)cc2)nc1 (stereo not drawn) [Example 23.8]
140 | CCC(C)Oc1ccc(C#Cc2ccc(CC(C)NC(C)=O)cc2)cc1 (stereo not drawn) [Example 23.9]
220 | CSc1ccc(C#Cc2ccc(CC(C)NC(C)=O)cc2)cc1 (stereo not drawn) [Example 23.10]

IC50 [nM] | Compound
1400 | CC(Cc1ccc(C#Cc2ccc(Oc3cncnc3)cc2)cc1)NC(=O)C1CC1 (stereo not drawn) [Example 23.11]
650 | CC(=O)NC(C)Cc1ccc(C#Cc2ccc(OCC(C)C)cn2)cc1 (stereo not drawn) [Example 23.12]
450 | CCOc1ccc(C#Cc2ccc(CC(C)NC(C)=O)cc2)nc1 (stereo not drawn) [Example 23.13]
650 | CCCOc1ccc(C#Cc2ccc(C(C)(C)CNC(C)=O)cc2)nc1 [Example 23.14]
21500 | CC(=O)NC(C)(C)c1ccc(C#Cc2cnc(OC3CCC3)nc2)cc1 [Example 23.15]
70 | CCCOc1ccc(C#Cc2ccc(CC(C)NC(C)=O)cc2)cc1 (stereo not drawn) [Example 24.1, N-{1-Methyl-2-[4-(4-propoxy-phenylethynyl)-phenyl]-ethyl}-acetamide]
80 | CCOc1ccc(C#Cc2ccc(C[C@H](C)NC(C)=O)cc2)cc1 [Example 24.2]
170 | CC(=O)N[C@@H](C)Cc1ccc(C#Cc2ccc(Oc3ccccc3)nc2)cc1 [Example 24.3]
200 | CC(=O)NC(C)Cc1ccc(C#Cc2cnc(OC3CCCC3)nc2)cc1 (stereo not drawn) [Example 27.1, N-{2-[4-(2-Cyclopentyloxy-pyrimidin-5-ylethynyl)-phenyl]-1-methyl-ethyl}-acetamide]
1200 | CCOc1ccc(C#Cc2ccc(CC(COC)NC(C)=O)cc2)cc1 (stereo not drawn) [Example 27.2]
150 | CCOc1ccc(C#Cc2ccc(CC(CC)NC(C)=O)cc2)cc1 (stereo not drawn) [Example 27.3]
13100 | CCOc1ccc(C#Cc2ccc(C(C)NC(=O)OC)cc2)cc1 (stereo not drawn) [Example 29.1, {1-[4-(4-Ethoxy-phenylethynyl)-phenyl]ethyl}-carbamic acid methyl ester]
310 | CCOc1ccc(C#Cc2ccc(CC(C)NC(=O)OC)cc2)cc1 (stereo not drawn) [Example 29.2]
1700 | CC(=O)NC(C)Cc1ccc(C#Cc2ccc(OCc3nccs3)cc2)cc1 (stereo not drawn) [Example 31.1, N-(1-Methyl-2-(4-(4-(thiazol-2-ylmethoxy)-phenylethynyl)-phenyl)-ethyl)-acetamide]
200 | CC(=O)NC(C)Cc1ccc(C#Cc2ccc(OC3COC3)cc2)cc1 (stereo not drawn) [Example 31.2]
70 | CCCOc1ccc(C#Cc2ccc(C(C)CNC(C)=O)cc2)cc1 (stereo not drawn) [Example 32.1, N-{2-[4-(4-Propoxy-phenylethynyl)-phenyl]-propyl}-acetamide]
200 | CCCOc1ccc(C#Cc2ccc(C(C)CNC(=O)C3CC3)cc2)cc1 (stereo not drawn) [Example 32.2]
70 | CC(=O)NCC(C)c1ccc(C#Cc2cnc(OC3CCC3)nc2)cc1 (stereo not drawn) [Example 32.3]
